# In publication PMC11117721, “A Fast-Binding, Functionally Reversible, COX-2 Radiotracer for CNS PET Imaging” (ACS Central Science, 2024):
# Biological target: T1, COX-2 (Mus musculus, UniProt Q05769)
# T1 construct: from tissue; host or cells: brain of living wild-type mice (Strain C57BL/6J)
# T1 sequence (Q05769 18-604): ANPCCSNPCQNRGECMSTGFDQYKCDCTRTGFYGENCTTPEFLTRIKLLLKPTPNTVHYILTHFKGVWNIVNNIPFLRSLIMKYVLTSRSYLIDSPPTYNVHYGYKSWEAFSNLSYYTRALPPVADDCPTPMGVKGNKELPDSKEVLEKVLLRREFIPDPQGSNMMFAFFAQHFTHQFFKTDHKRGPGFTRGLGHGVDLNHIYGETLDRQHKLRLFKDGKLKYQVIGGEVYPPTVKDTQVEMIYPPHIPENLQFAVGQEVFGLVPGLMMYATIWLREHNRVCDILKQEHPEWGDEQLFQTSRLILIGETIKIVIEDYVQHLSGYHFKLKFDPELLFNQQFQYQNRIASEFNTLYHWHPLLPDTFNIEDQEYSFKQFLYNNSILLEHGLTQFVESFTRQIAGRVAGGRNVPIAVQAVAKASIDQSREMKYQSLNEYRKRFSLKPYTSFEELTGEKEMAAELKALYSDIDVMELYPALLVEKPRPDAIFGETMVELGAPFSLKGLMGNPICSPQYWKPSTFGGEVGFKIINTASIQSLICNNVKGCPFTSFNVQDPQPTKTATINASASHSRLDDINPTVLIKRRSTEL
# Experiment: PET imaging of wild-type mice (controls)
# Format: in vivo
# Conditions: WT mice (n = 4)
# Description: We performed additional validation of [^11C]BRD1158 through in vivo PET imaging of an hCOX-2 transgenic mouse line (Figure 3), which overexpressed human COX-2 primarily in neurons (Strain No. 010703, Jackson Laboratories). […] While we did perform contralateral sham (control virus) injections in the AAV rats to assess potential injection confounds, as COX-2 is part of the injury and inflammation response, it was important to validate in a model naïve to brain insult to mitigate how aspects of the AAV rat experimental design could have misled our interpretations of tracer specific binding.
# In accordance with Massachusetts General Hospital Institutional Animal Care and Use Committee (IACUC) protocols, Sprague Dawley rats (300-500g, Charles River Laboratories), wildtype mice (Strain C57BL/6J), and human Thy-1-COX-2 transgenic line 303 mice (Strain 010703, Jackson Laboratories) were used in these studies. All animals were housed in a standard animal facility with access to conventional rodent food and water ad libitum and a 12 -hour day/night schedule. All animals were allowed to acclimate before any experime ntal procedures. Only male animals were used for imaging experiments .
# Animals were induced under anesthesia using 1 -3% isoflurane in a carrier of 1.0 -1.5 L/min oxygen.
# Maintenance of isoflurane depended on procedure and species, rats 2 -3% and mice 1-2%. Rats undergoing surgeries had higher isoflurane maintenance at 3 -4%. After induction, the animals’ body temperatures were regulated using a support heating pad or fan throughout all experiments.
# Respiratory rates and body temperature were monitored through all imaging and surgical procedures, generally using a respiratory pad and rectal probe. Injections were made through the lateral tail vein.
# Rats were cannulated with an IV extension using a 60 in, 0.3 mL volume IV extender (Smith Medical) and a 24 ga x 0.75 in IV catheter (McKesson). Mice were cannulated with Intramedic PE10 tubing (BD […]
# Group 2 animals then […]
compound,measurement,setting,value
[11CH3]S(=O)(=O)c1ccc(-c2cccc(NCc3ccoc3)n2)cc1 [[^11C]BRD1158],SUV Average (9–21 min),cerebellum,0.376 ± 0.02
same,SUV Average (9–21 min),cortex,0.359 ± 0.04
same,SUV Average (9–21 min),striatum,0.385 ± 0.05
